Results reported in a melting point compilation (Tetko et al.; mined from patent text by program, amines drawn as free bases though some values may be those of a salt).

First: CC1(C)CC(CN2CCCNC2=N[N+](=O)[O-])CO1 (stereo not drawn)
Second: CC(=O)Nc1ccc(S(=O)(=O)NCC2CCN(C[C@H]3COc4ccc5[nH]ccc5c4O3)CC2)cc1
The melting point of the first is lower: 109 to 110 °C for the first, 133 to 134 °C for the second.

First: N#CC1=C(C2CCCCC2=O)Nc2n[nH]cc2C1c1cccc(C#N)c1Br (stereo not drawn)
Second: O=c1[nH]c2ncc(-c3ccc(-c4ncc[nH]4)cc3)nc2n1CC1CCCCC1
The melting point of the first is lower: 273 °C for the first, 349 to 351 °C for the second.

Going from O=C(c1c(Cl)cccc1Cl)P(=O)(C(=O)c1c(Cl)cccc1Cl)c1ccccc1 to Cc1ccc(Nc2cc(NCc3ccccc3)c(C(=O)O)cc2S(N)(=O)=O)cc1, the melting point falls from 194 °C to 128 °C.

Compared with O=C(Nc1ccc(Cl)cn1)c1oc2ccc(C(=O)N3CCOCC3)cc2c1NC(=O)[C@H]1CC[C@H](N2CCCC2=O)CC1, O=C(CN1CCOCC1)N[C@@H](Cc1cccc2ccccc12)C(=O)O is lower in melting point: 253 to 255 °C for the first, 100 to 103 °C for the second.

First: CNC(=S)C1(c2ccncc2)CCCS1 (stereo not drawn)
Second: O=Cc1ccc(OC2CCCC2)c(O)c1
The melting point of the first is higher: 178 °C for the first, 87 to 89 °C for the second.

Compared with N#Cc1cccc(-c2nc(N3CCC(O)C3)cc3cccnc23)c1 (stereo not drawn), OCc1cccc2cc(-c3ccccc3)oc12 is lower in melting point: 132 to 133 °C for the first, 118 °C for the second.

First: NC(=O)COCc1nnc(S)s1
Second: NS(=O)(=O)Cc1ccccc1-c1nnc(S)o1
The melting point of the first is lower: 216 to 217 °C for the first, 224 to 227 °C for the second.

NC(=O)C1CCCC(C(=O)O)C1 (stereo not drawn) and CC(=O)S[C@H]1NC(=O)[C@H]1NC(=O)Cc1ccccc1 cannot be ordered by melting point: 102 to 128 °C for the first, 110 to 111 °C for the second.

First: CC1(C)OC(c2ccc(S(C)(=O)=O)cc2)=C(c2cccc(F)c2)C1=O
Second: CS(=O)(=O)c1ccc(-c2nnc(Oc3ccc(F)cc3F)cc2-c2ccc(Cl)cc2)cc1
The melting point of the first is higher: 178 to 179 °C for the first, 115 to 117 °C for the second.

Compared with C=CCON=C(CCC)C1=C(O)CC(c2ccc(OC)c(NC(C)=O)c2)CC1=O (stereo not drawn), COc1ccc2cc(C=CC(C)OC(C)=O)ccc2c1 (stereo not drawn) is lower in melting point: 136 to 137 °C for the first, 78 to 80 °C for the second.

First: N#CCN1CCC(Nc2nc3ccccc3n2Cc2ccc(CO)o2)CC1
Second: Cc1ccccc1N1CCc2c(C)nc3ccccc3c21
The melting point of the first is higher: 210 °C for the first, 148 to 150 °C for the second.

Compared with O=C(Nc1ccccc1)c1cccc([N+](=O)[O-])c1, CC1(C(=O)O)c2ccccc2-c2ccccc21 is higher in melting point: 153 to 154 °C for the first, 168 to 169 °C for the second.

First: CCOC(=O)c1cnc2scc(C)c2c1O
Second: Cc1c(C(=O)O)sc(=O)c2ccccc12
The melting point of the first is lower: 189 to 192 °C for the first, 243 to 245 °C for the second.

First: O=C(Nc1nonc1-c1ccccc1)NC1CCC(C(F)(F)F)CC1 (stereo not drawn)
Second: c1ccc(COc2ccc([C@H]3CC[C@@H](NCCOc4ccccc4)CC3)cc2)cc1
The melting point of the first is higher: 212 °C for the first, 95 to 98 °C for the second.

Compared with CN(C)c1ccc(-c2n[nH]c(=O)c3cc(N(C)C)ccc23)cc1, CCSC1=C(c2ccc(O)cc2)C(=O)c2cc(O)ccc21 is lower in melting point: 230 to 233 °C for the first, 78 to 81 °C for the second.

First: COc1ccc(N2CCN(c3c(C)c(C)c4c(c3C)C(O)(C3CCCCC3)C(C)(C)O4)CC2)cc1 (stereo not drawn)
Second: COC1=C(OC)C(=O)C2=C(CCC(CCOc3ccc(-c4ccccc4)cc3)CC2)C1=O
The melting point of the first is higher: 166 to 167 °C for the first, 109 to 112 °C for the second.

Compared with COC1=C(OC)C(=O)c2c(cccc2[N+](=O)[O-])C1=O, Cc1nc2ccc3c(c2nc1C)C(=O)c1ccccc1C3=O is higher in melting point: 156 to 157 °C for the first, > 400 °C for the second.

First: CN(C(=O)/C=C/CSc1nc(N)cc(Cl)n1)c1ccccc1
Second: OCc1csc(-c2ccccc2)c1
The melting point of the first is higher: 152 to 154 °C for the first, 92 to 93 °C for the second.

Compared with CC(=O)OCC(C)(C)C(OC(C)=O)C(Oc1ccc(Cl)cc1)n1cncn1 (stereo not drawn), CC(C)(C)OC(=O)NCCOC(=O)COc1ccc(CCCCN(C(=N)N)C(=O)c2nc(Cl)c(N)nc2N)cc1 is lower in melting point: 84 to 87 °C for the first, 80 to 82 °C for the second.

Compared with O=C(Nc1ccc(O)cc1)Nn1cnc2ccccc2c1=O, O=C(CO)c1ccc(Oc2ccccc2)cc1 is lower in melting point: 220 to 223 °C for the first, 67 to 69 °C for the second.

Going from CCCCC(CCCC)n1c(=O)sc2c(=O)[nH]c(N)nc21 to CCCCc1cc2cc(O)c(Cl)c(Cl)c2s1, the melting point falls from > 175 °C to 35 °C.

First: Cn1ccnc1SCOC(=O)C(C)(C)C
Second: CC(=O)SCSc1nnn[nH]1
The melting point of the first is higher: 128 to 132 °C for the first, 90 °C for the second.

First: CC(=O)OC1CSC(Oc2cncc(-c3cccs3)c2)C(OC(C)=O)C1OC(C)=O (stereo not drawn)
Second: CCCS(=O)(=O)N1C[C@@H](C)C[C@H](Nc2ncccc2-c2cnc3[nH]ccc3n2)C1
The melting point of the first is lower: 166 °C for the first, 178 to 180 °C for the second.

Compared with COC(=O)c1cc(Cl)cc2c1OC(C)(C)C(=O)N2, CCc1cn(C2CC(O)C(CNCC(C)Oc3ccc(Cl)cc3Cl)O2)c(=O)[nH]c1=O (mixture of isomers) is lower in melting point: 178 to 179 °C for the first, 51 to 61 °C for the second.

First: CCCCCC(O)C=CC1C(O)CC(=O)C1CCCCCCC(=O)OCCSS(C)(=O)=O (stereo not drawn)
Second: C=CC(CC(O)C(CC1CCCCC1)NC(=O)C(Cc1ncc[nH]1)NC(=O)C(Cc1ccccc1)NC(=O)C(N)COC(C)(C)C)C(C)C (stereo not drawn)
The melting point of the first is lower: 56 to 58 °C for the first, 103 °C for the second.

First: Cc1ccc(CNC(=O)C2=C(C(=O)Nc3ccc(Br)cc3F)CCCC2)cc1
Second: Cc1ccc2c(c1)c(CCC(=O)O)c1n2C(=O)CCC1
The melting point of the first is higher: 167 to 168 °C for the first, 152 to 153 °C for the second.

First: Cc1ccc(S(=O)(=O)NCCN(CCNS(=O)(=O)c2ccc(C)cc2)Cc2ccccc2)cc1
Second: CC(C)(C)c1ccc(-c2c(Cl)c(CCl)nc3sc4c(c23)CCN(Cc2ccccc2)C4)cc1
The melting point of the first is lower: 87 to 91 °C for the first, 208 to 209 °C for the second.

Compared with O=C1c2ccccc2C(=O)N1CCOCCl, CN1c2c(occ(CO)c2=O)-c2ccccc2S1(=O)=O is higher in melting point: 69 to 72 °C for the first, 201 to 205 °C for the second.

Compared with NS(=O)(=O)c1ccc(-c2cnn(-c3ccc(F)c(F)c3)c(=O)c2Oc2ccc(F)cc2)cc1F, Nc1nc(-c2ccc(F)cc2)cc(-c2ccc(F)cc2)n1 is lower in melting point: 224 to 226 °C for the first, 207 to 210 °C for the second.

Compared with CCC(CCNC(=O)C(C#N)=Cc1cc(O)c(O)c(OC)c1)NC(=O)C(C#N)=Cc1cc(O)c(O)c(OC)c1 (stereo not drawn), CCC(CC)CNC(=O)c1cccc(CN2C(=O)C3(COc4cc5c(cc43)CCO5)c3ccccc32)c1 (stereo not drawn) is lower in melting point: 256 °C for the first, 105 to 106 °C for the second.

First: O=C1COc2cc(F)c(N3C(=O)C4=C(CCCC4)C3=O)cc2N1Cc1ccccn1
Second: CCOC(=O)N1CCC(=C2c3ccccc3CCc3cccnc32)CC1
The melting point of the first is higher: 188 to 190 °C for the first, 106 to 107 °C for the second.

First: CCCCCc1c(C(C)C)nc(C(C)C)c(CO)c1-c1cccc(F)c1
Second: Cc1ccn2c(C)c(-c3ccc4c(c3)N(C)C(=O)CS4)nc2c1
The melting point of the first is lower: 117 to 118 °C for the first, 231 °C for the second.

First: CCn1cc(C2CCC3(CC2)OCCO3)c2cc(C#N)ccc21
Second: Oc1nn(-c2ccc(Cl)c(Cl)c2)cc1-c1ccccc1
The melting point of the first is lower: 124 to 126 °C for the first, 244 to 245 °C for the second.

First: Nc1cccc(Cl)c1-c1nc(-c2ccncc2)c(-c2ccc(Cl)cc2)[nH]1
Second: O=C(Nc1ccc2ccc(Oc3ccccc3)nc2n1)c1ccoc1
The melting point of the first is higher: 220 to 222 °C for the first, 102 °C for the second.

First: Nc1cc(=O)n(Cc2ccc(Cl)c(C(F)(F)F)c2)[nH]1
Second: O=C(c1c[nH]c2cc(Br)ccc12)C(F)(F)F
The melting point of the first is lower: 132 °C for the first, 258 to 260 °C for the second.

Going from NCC(O)c1nn(Cc2ccccc2)c2ccccc12 (stereo not drawn) to O=C(C=Cc1ccccc1)c1cccc(NC(=O)c2ccn3c2CSC3c2cccnc2)c1 (stereo not drawn), the melting point rises from 126 °C to 190 °C.

For Cc1cccn2cc(CCl)nc12, the melting point was 115 to 117 °C.
